Key:
Carbonic anhydrase 9 = Carbonic anhydrase 9 (Homo sapiens, UniProt Q16790)
Carbonic anhydrase 2 = Carbonic anhydrase 2 (Homo sapiens, UniProt P00918)
Carbonic anhydrase 1 = Carbonic anhydrase 1 (Homo sapiens, UniProt P00915)
Carbonic anhydrase 1, sequence (P00915 whole entry): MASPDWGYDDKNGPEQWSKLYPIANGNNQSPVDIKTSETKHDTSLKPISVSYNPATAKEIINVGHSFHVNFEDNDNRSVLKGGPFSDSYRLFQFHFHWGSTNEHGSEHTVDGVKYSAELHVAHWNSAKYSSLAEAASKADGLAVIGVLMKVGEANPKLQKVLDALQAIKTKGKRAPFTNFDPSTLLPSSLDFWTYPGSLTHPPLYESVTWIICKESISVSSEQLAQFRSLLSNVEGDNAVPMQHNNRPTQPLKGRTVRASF

Compound | Ki (Carbonic anhydrase 9) | Ki (Carbonic anhydrase 2) | Ki (Carbonic anhydrase 1)
NS(=O)(=O)c1ccc(CNC(=O)NC2CC2c2ccccc2)cc1 (centres undefined) | 1840 nM | 2610 nM | 
CC1CCN(N(CCCC(=O)Nc2ccc(S(N)(=O)=O)cc2)N2CCC(C)CC2)CC1 | 90 nM | 265 nM | 
NS(=O)(=O)c1ccc(CCNC(=O)c2sc3ccccc3c2Cl)cc1 | 1070 nM |  | 
NS(=O)(=O)c1ccc(CCNC(=O)CN2C(=O)c3ccccc3C2=O)cc1 | 290 nM |  | 
N#Cc1c(N)n(-c2cccc(S(N)(=O)=O)c2)c2nc3ccccc3nc12 | 300 nM |  | 
NS(=O)(=O)Oc1ccc(OS(N)(=O)=O)cc1 |  | 643 nM | 
NS(=O)(=O)c1ccc(CNS(=O)(=O)c2ccc(F)cc2)cc1 | 290 nM | 100 nM | 
NS(=O)(=O)c1ccc(CCNC(=S)Nc2ccc(C(=O)O)cc2)cc1 |  | 380 nM | 
C=CCn1c(SCC(=O)Nc2ccc(S(N)(=O)=O)cc2)nc2sc3c(c2c1=O)CCCC3 | 2750 nM | 330 nM | 15000 nM

From ChEMBL document CHEMBL1140874, “Ligand-based and structure-based virtual screening to identify carbonic anhydrase IX inhibitors” (Bioorg Med Chem, 2009)
